The values below come from PubChem BioAssay (NCI).

Assay in all cases: DTP human tumour cell line panel, 48 h
Test [1] has as its system HCT-15 colon.
Test [2] deals with M19-MEL melanoma.
Test [3] concerns OVCAR-3 ovarian.
The subject of test [4] is CCRF-CEM leukemia.
For test [5], the system named is SNB-75 CNS.
Test [6] has as its system HCT-116 colon.
The subject of test [7] is DLD-1 colon.
Test [8] has as its system U251 CNS.
Test [9] has as its system DU-145 prostate.
Test [10] concerns MDA-N.

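Results reflect a 48-hour exposure of cells in 96-well plates to compound at five concentrations. The concentration for full growth arrest is given as TGI.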

As to `N#CN=C(N(Cc1ccccc1)Cc1ccccc1)N(Cc1ccccc1)Cc1ccccc1`, the TGI (as a rule, the concentration giving total growth inhibition) in test [1] was > 100 µM; in [2] it was > 100 µM; in test [3] it was 31.7 µM; in [4] it was > 100 µM; in test [5], > 100 µM; in [6], > 100 µM. The TGI in [7] is > 100 µM.

In the case of `CCN(CC)CCC(=O)Nc1ccc2c(c1)C(=O)c1ccc(NC(=O)CCN(CC)CC)cc1C2=O`, the TGI in [1] is 14.8 µM; in test [2], > 100 µM; in test [4] it was 18.5 µM; in test [5], 31.9 µM; in [8], 21.2 µM; in test [6], 10.1 µM. In [7], this compound had a TGI of 10.2 µM.

Turning to `COc1nc(N)c(C(=O)CCl)c(=O)n1C`, the TGI turned out to be 79.8 µM in test [4]; 30.3 µM in test [5]; 29.9 µM in [8]; 31.3 µM in test [6]; 27.6 µM in test [7].

Turning to `CC(=O)NC1=C(NCCC(C)C)C(=O)c2ccccc2C1=O`, the TGI in test [1], in [2], in test [3], in test [4], in [5] and in [8] was > 50 µM each time. Moreover, the TGI in test [6] and in test [7] was > 50 µM throughout.

In the case of `O=C(Nc1ccc(C2=NCCN2)cc1)c1cncc(C(=O)Nc2ccc(C3=NCCN3)cc2)c1`, the TGI was > 100 µM in [1]; > 100 µM in [2]; > 100 µM in [3]; > 100 µM in [4]; > 31.6 µM in [5]; > 100 µM in [8]. The TGI in test [6] and in [7] was > 100 µM in each case.

For `Cc1cccc2c(=O)cc(-c3ccccc3)[nH]c12`, the TGI in test [1] was > 100 µM; in [2], > 100 µM; in [3] it was > 100 µM; in test [4] it was > 100 µM; in test [5], 9.26 µM; in [8], > 100 µM. The TGI in test [6] and in test [7] was > 100 µM each time.

For `CCOC(=O)C1=C(C)NC(=S)NC1c1ccccc1` (stereo not drawn), the TGI in test [1] was > 56 µM; in test [2] it was > 58.9 µM; in test [3] it was > 100 µM; in [4], > 76.9 µM; in test [5] it was > 100 µM; in test [8], > 56.2 µM. Besides, the TGI in test [6] and in test [7] was > 100 µM each time.

`O=C1CCC(=O)N1n1c(Cc2ccccc2)n[nH]c1=O`: the TGI in test [1], in test [3], in test [4], in test [5], in test [8] and in test [6] was > 100 µM in each case. Besides, the TGI in [9] and in test [10] was > 100 µM in each case.

With `FC(F)(F)c1cc(Cl)cnc1N/N=C(/c1ccccc1)c1ccccn1`, the TGI in [1] is > 100 µM; in test [3], 12.7 µM; in test [4], 4.85 µM; in test [5], 3.33 µM; in test [8], 41.3 µM; in test [6] it was 19.2 µM. Moreover, the TGI in [9] and in [10] was > 100 µM throughout.

Take `C[C@@]12C[C@@H](c3ccccc3O1)N1CCCCSC1=N2`: the TGI in test [1], in test [3], in test [4], in test [5], in test [8] and in test [6] was > 100 µM throughout. Further, the TGI in [9] and in test [10] was > 100 µM in each case.

Take `Brc1ccc(N=c2nc3ccccn3n3nc(-c4ccccc4)cc23)cc1`: the concentration for total growth inhibition (TGI) in test [1] is > 100 µM; in test [2], > 100 µM; in test [3], 72.1 µM; in test [4], > 100 µM; in [5], > 100 µM; in test [8], > 100 µM. Besides, the TGI in test [6] is > 100 µM; in test [7], 47.7 µM.

Regarding `O=C1c2ccccc2C2C1N2C(=O)C(F)(F)F` (stereo not drawn), the TGI in [1] was > 100 µM; in test [2], > 100 µM; in test [3] it was > 100 µM; in test [4], 70.9 µM; in [5], > 100 µM; in test [8], > 100 µM. Moreover, the TGI in test [6] and in [7] was > 100 µM in each case.

As for `Cc1nc(C(N)=S)sc1/C(CC(=O)C(=O)Nc1cccc2ccc(O)cc12)=N\NC(=O)c1ccncc1`, the TGI in test [1], in test [3], in [4], in [5], in [8] and in test [6] was > 100 µM in each case. The TGI in test [9] and in test [10] was > 100 µM each time.

As for `CC(C)/C(Cl)=N\OC(=O)Nc1ccc(S(N)(=O)=O)cc1`, the TGI in test [1] was determined as 31.6 µM; in [3], 28.2 µM; in test [4], 6.49 µM; in test [5] it was 25.4 µM; in test [8], 35.7 µM; in test [6], 27.7 µM. For the same compound, the TGI in test [9] turned out to be 31.8 µM; in test [10], 32.9 µM.

Consider `O=C1CCC23CC(C=CC=C12)n1c(=O)n(-c2ccccc2)c(=O)n13` (stereo not drawn), for which the TGI in [1], in test [2], in test [3], in test [4], in test [5] and in test [8] was > 100 µM each time. The TGI in [6] and in test [7] was > 100 µM in each case.

As to `CC(C)C1/C(=N/O)CC(c2ccccc2)N(N=O)C1c1ccccc1` (stereo not drawn), the TGI is > 100 µM in test [1]; > 100 µM in [3]; > 100 µM in test [4]; > 100 µM in test [5]; > 100 µM in test [8]; 85.7 µM in test [6]. The TGI in [9] and in [10] was > 100 µM in each case.
